From patent US6051417A, “Prostate cancer drug screening using hKLK2 enhancer” (Calydon, Inc., priority 1997, dated 2000)
Like-named read-outs stand apart in the source and are kept apart here.

Assays:
[1] = tested on: PSE-Luc/LNCaP cell line CN1013; assay: Stably transfected PSE-Luc/LNCaP cell line CN1013 (and subclone CN1013.7), luciferase assay; conditions: for inhibition of luciferase expression after induction with 1 nM R1881: CN1013, all anti-androgen concentrations examined; for concentration, relative to R1881, giving luciferase expression levels similar to R1881 / luciferase expression at physiological concentrations: CN1013, anti-androgen alone
[2] = tested on: PSE-Luc (PSA enhancer/promoter-luciferase) in LNCaP cells; assay: Transient transfection of LNCaP cells with PSE-Luc, luciferase assay
[3] = Metabolism of dihydrotestosterone in CN1013 cell line (Testosterone ELISA); conditions: human, cn1013 cells
CN1013 cells = assay: as above
[4] = tested on: CMV-Luc/LNCaP stable cell line; assay: CMV-Luc/LNCaP stable cell line luciferase expression (control); assay type: cell-based, human; conditions: 10-1000 nM androgen
Description: CMV-Luc/LNCaP Cell Line. Transfections of the control plasmid, CMV-Luc, into LNCaP cells were done in the same fashion as for PSE-Luc. The stable cell line CN1006, containing CMV-Luc, was obtained by selection with G418. The luciferase assay was performed as described above.
Luciferase Expression of CMV-Luc/LNCaP Stable Cell Line. LNCaP clones containing the CMV-Luc gene were screened for stable expression of the luciferase gene (i.e. selection of stable cell line). A 3-4 fold increase in expression levels over the uninduced cells was observed upon the addition of 10-1000 nM androgen. A similar androgen stimulation of CMV-Luc expression in transient transfection of LNCaP cells was reported by Pang et al., Hum. Gene Ther. (1995) 6:1417-1426. The slight increase in expression levels was attributed to cell proliferation resulting from increased R1881 addition.

[5] = tested on: hKLK2 promoter/enhancer-luciferase constructs in LNCaP cells; assay: hKLK2 promoter/enhancer-driven luciferase expression in transfected LNCaP cells; assay type: cell-based, human; conditions: for fold induction at 0.001 µM: Homo sapiens, LNCaP, 48 h
From the text: To assess the function of the DNA segment containing the enhancer, a series of constructs was generated by inserting the hKLK2 5'-flanking region, shown schematically in FIG. 2, upstream of the luciferase reporter gene. The activity of these fragments was compared with that of CN299, a plasmid with the full hKLK2 promoter (-605 to +33) driving the expression of firefly luciferase. The constructs are as follows:
To determine the effect of the 12 kbp 5'-flanking sequence on promoter activity, two constructs were created: CN299 and CN322. The hKLK2 promoter was cloned upstream of the luc gene to create CN299, as described in Example 2. The entire 12 kbp sequence upstream of the hKLK2 gene (including the promoter) was cloned upstream of the luc gene to create CN322, as described in Example 2. Each construct was then used to transfect LNCaP cells. The media in half of the dishes was supplemented with 0.5 nM R1881. The cells were harvested 48 hours post transfection and the luciferase activity was measured. […] At both R1881 concentrations tested, CN322 had higher activity than CN299.
To determine if the hKLK2 5'-flanking sequence did indeed contain an androgen responsive element, two experiments were conducted. In the first experiment, LNCaP cells were transfected with CN322, the transformants were incubated in medium containing various concentrations of R1881, and 48 hours after transfection, luciferase activity was measured. […] Peak induction of activity was estimated at 1 nM R1881, about 9 fold over the 0 nM activity.
(§1) Knowing that the PSA enhancer is tissue specific, a series of experiments was conducted to determine if the same was true for the hKLK2 enhancer. In the first experiment, LNCaP cells (a PSA-producing prostate cancer cell line) and 293s (a human embryonic kidney cell line) were transfected with CN299 or CN322 (Example 2). Half of the dishes were supplemented with 1 nM R1881, and the cells were harvested 48 hours post transfection. […] The results of this experiment again support the conclusion that the hKLK2 enhancer is androgen inducible.
(§2) This 3.8 kbp fragment was fused upstream of the minimal hKLK2 promoter and then cloned upstream of the luc gene, creating CN355. A variety of cell lines were transfected with CN322 or CN355 by incubating them with the complexes in complete media overnight. The complexes were then aspirated and the media was replaced with stripped serum media. The media in half of the plates was supplemented with 1 nM R1881. The cells were then harvested 48 hours after the removal of the DNA-lipid complexes and tested for luciferase activity.

[6] = tested on: hKLK2 promoter/enhancer-luciferase constructs in 293 cells; assay: hKLK2 promoter/enhancer-driven luciferase expression in transfected 293 cells; assay type: cell-based, human; conditions: 1 nM R1881
Description: as §1

[7] = tested on: CN322 or CN355 in OVCAR, 293, PC3 cells; assay: hKLK2 enhancer/promoter luciferase activity in other cell lines (OVCAR, 293, PC3); assay type: cell-based; conditions: Homo sapiens, 48 h, read-out: fold induction of activity
Description: FIG. 7 is a bar graph depicting the activity of the hKLK2 enhancer/promoter in various cell lines. Various cell lines were transfected with either CN322 or CN355, and, after an overnight incubation in complete medium, were incubated in the presence or absence of R1881. CN355 contains a 3.8 kb fragment from approximately -6200 to approximately -2400 of the hKLK2 enhancer fused to the minimal hKLK2 promoter to control luciferase expression. The cell lines used were: OVCAR, human ovarian adenocarcinoma; 293, transformed human primary embryonal kidney; PC3, human grade IV prostate adenocarcinoma; LNCaP, metastatic human prostate adenocarcinoma.
as §2

CC(=O)O[C@]1(C(C)=O)CC[C@H]2[C@@H]3C=C(Cl)C4=CC(=O)[C@@H]5C[C@@H]5[C@]4(C)[C@H]3CC[C@@]21C [cyproterone acetate]
inhibition of luciferase expression after induction with 1 nM R1881 [1]: neither inhibition nor induction | concentration, relative to R1881, giving luciferase expression levels similar to R1881 [1]: 100-1,000 fold | luciferase expression at physiological concentrations [1]: zero or minimal expression

CC(C)(O)C(=O)Nc1ccc([N+](=O)[O-])c(C(F)(F)F)c1 [hydroxyflutamide]
inhibition of luciferase expression after induction with 1 nM R1881 [1]: neither inhibition nor induction | concentration, relative to R1881, giving luciferase expression levels similar to R1881 [1]: 100-1,000 fold | luciferase expression at physiological concentrations [1]: zero or minimal expression

CC1=C(/C=C/C(C)=C/C=C/C(C)=C/C(=O)O)C(C)(C)CCC1 [retinoic acid]
induction or inhibition of CN1013 luciferase ([1]; CN1013, non-steroidal ligand unrelated to androgen receptor): did not result in either induction or inhibition

C[C@]12CCC(=O)C[C@@H]1CC[C@@H]1[C@@H]2CC[C@]2(C)[C@@H](O)CC[C@@H]12 [DHT, dihydrotestosterone]
amount required relative to R1881 to obtain comparable luciferase activity [2]: approximately 100 fold | luciferase expression ([2]; DHT 100 and 200 nM): 2,500-3,000 RLUs | half-life at 0.01 µM [3]: ~1.1 h | time within which metabolism occurs after addition to CN1013 cells (CN1013 cells): 1 to 4 h | concentration when unexposed to CN1013 cells (CN1013 cells; medium without cells): remained constant | amounts required for comparable expression relative to R1881 ([1]; CN1013): 100-200 fold

C[C@]1(O)CC[C@H]2[C@@H]3CCC4=CC(=O)CCC4=C3C=C[C@@]21C [R1881, methyl trienolone]
fold increase in expression levels over uninduced cells [4]: 3-4 fold | response of CN322 luciferase activity to concentration ([5]; CN322, LNCaP, 0-10 nM R1881): concentration dependent manner | fold induction of luciferase activity ([5]; CN379, same assay methods, R1881): approximately 54 fold | fold induction at 0.001 µM ([5]; read-out: fold induction of activity vs 0 nM R1881, CN299, LNCaP, 1 nM R1881, 48 hours): 2 to 3 | fold induction at 0.001 µM ([5]; read-out: fold induction of activity vs 0 nM R1881, CN322, LNCaP, 1 nM R1881, 48 hours (Example 5 first experiment, FIG. 6)): 17 | fold induction at 0.001 µM ([5]; read-out: fold induction of activity, CN322, LNCaP, 1 nM R1881, stripped serum media, 48 hours (FIG. 7)): ~100 | fold induction at 0.001 µM ([5]; read-out: fold induction of activity, CN355, LNCaP, 1 nM R1881, stripped serum media, 48 hours (FIG. 7)): 35 | fold induction at 0.001 µM ([5]; read-out: peak induction of luciferase activity over the 0 nM activity, CN322, LNCaP, 1 nM R1881, 48 hours after transfection): ~9 | change of luciferase activity ([6]; CN299, 293 cells): reduction of activity | change of luciferase activity ([6]; CN322, 293 cells): reduction of luciferase activity | fold induction at 0.001 µM [7]: 1 to 2 | concentration giving peak levels of luciferase expression [2]: 1 nM | luciferase expression ([2]; 1-50 nM R1881, 48 hours): 3,000-3,500 RLUs | concentration giving peak values of induction ([1]; CN1013): 0.1 to 1 nM | EC50 ([1]; Homo sapiens, LNCaP, read-out: EC50 of luciferase induction): 0.075 nM | fold induction of luciferase ([1]; subclone CN1013.7): 100-200 fold
